# Tested on: HeLa, an HPV-18 positive human cervical cancer cell line
# Test: Cell proliferation and cell death, trypan blue exclusion, HeLa cells
# Format: cell-based
# Procedure: M4N in 10% (w/v) HP-β-CD and 25% (v/v) PEG 300 (hereafter, the “CPE formulation”), M4N in 30% (w/v) HP-β-CD and 25% (v/v) PEG 300 (hereafter, the “CPE 25/30 formulation”) and M4N in 27% (w/v) HP-β-CD and 33% (v/v) PEG 300 (hereafter, the “CPE 33/27 formulation”) was tested for their effects on cell death and proliferation on two different tumor cell lines: HeLa, an HPV-18 positive human cervical cancer cell line, and C-33A, an HPV-negative human cervical cancer cell line M4N in DMSO was also tested in parallel. Both tumor cell lines were treated with increasing amounts of M4N: 0 μM, 20 μM, 40 μM, 60 μM and 80 μM, for 72 hr with the DMSO or the CPE formulation. Each formulation was added to total 1% of the growth media (Minimal Essential Medium with L-glutamine supplemented with 10% fetal bovine serum, 1 mM sodium pyruvate, 1× non-essential amino acid solution, and 1,000 IU/mL penicillin/1,000 μg/mL streptomycin solution). Control cells were grown under the same conditions and were left untreated. After 72 hr of treatment or no treatment, the total number of cells and the number of live cells in each sample were counted, using the trypan blue exclusion method. The cell proliferation rate and the percentage of dead cells in each sample were analyzed. Results of this experiment are shown in FIG. 1, FIG. 2, and Tables 6 through 12.
# FIG. 1 is a graphical representation of the ratio of the number of treated cells/number of untreated cells plotted against increasing concentrations of M4N in either the DMSO formulation or the CPE formulation for treatment of the C-33A cells and HeLa cells. FIG. 2 is a graphical representation of the percentage of dead cells plotted against increasing concentrations of M4N and in either DMSO formulation or the CPE formulation for treatment of the two cancer cell lines, C-33A and HeLa cells in culture.
# Various lots of M4N were tested to show the effectiveness of the drug of different lots. HeLa cells were treated with increasing amounts of M4N: 0 μM, 20 μM, 40 μM, 60 μM and 80 μM, for 72 hr with the CPE formulation. Each formulation was added to total 1% of the growth media (Minimal Essential Medium with L-glutamine supplemented with 10% fetal bovine serum, 1 mM sodium pyruvate, 1× non-essential amino acid solution, and 1,000 IU/mL penicillin/1,000 μg/mL streptomycin solution). Control cells were grown under the same conditions and were left untreated. After 72 hr of treatment or no treatment, the total number of cells and the number of live cells in each sample were counted, using the trypan blue exclusion method. The cell proliferation rate and the percentage of dead cells in each sample were analyzed.
# [1] = M4N 20 μM in CPE 25/30 formulation, 72 hr
# [2] = M4N 20 μM in CPE 25/30 formulation, 72 hr, at 3 months
# [3] = M4N 20 μM in CPE 33/27 formulation, 72 hr, time zero
# [4] = M4N 20 μM in CPE formulation, 72 hr, at 3 months
# [5] = M4N 20 μM in CPE formulation, 72 hr, at 9 months
# [6] = M4N 20 μM in CPE formulation, 72 hr, at 12 months
# [7] = M4N 20 μM in CPE formulation, 72 hr, comparison with CPE 25/30
# [8] = M4N 20 μM in CPE formulation, 72 hr, time 0
# [9] = M4N 20 μM in CPE formulation, 72 hr, time zero, comparison with CPE 33/27
# [10] = M4N 20 μM in DMSO, 72 hr, at 9 months
# [11] = M4N 20 μM in DMSO, 72 hr, at 12 months
# [12] = M4N 20 μM in DMSO, 72 hr, time 0
# [13] = M4N 40 μM in CPE 25/30 formulation, 72 hr
# [14] = M4N 40 μM in CPE 25/30 formulation, 72 hr, at 3 months
# [15] = M4N 40 μM in CPE 33/27 formulation, 72 hr, time zero
# [16] = M4N 40 μM in CPE formulation, 72 hr, at 3 months
# [17] = M4N 40 μM in CPE formulation, 72 hr, at 9 months
# [18] = M4N 40 μM in CPE formulation, 72 hr, at 12 months
# [19] = M4N 40 μM in CPE formulation, 72 hr, comparison with CPE 25/30
# [20] = M4N 40 μM in CPE formulation, 72 hr, time 0
# [21] = M4N 40 μM in CPE formulation, 72 hr, time zero, comparison with CPE 33/27
# [22] = M4N 40 μM in DMSO, 72 hr, at 9 months
# [23] = M4N 40 μM in DMSO, 72 hr, at 12 months
# [24] = M4N 40 μM in DMSO, 72 hr, time 0
# [25] = M4N 60 μM in CPE 25/30 formulation, 72 hr
# [26] = M4N 60 μM in CPE 25/30 formulation, 72 hr, at 3 months
# [27] = M4N 60 μM in CPE 33/27 formulation, 72 hr, time zero
# [28] = M4N 60 μM in CPE formulation, 72 hr, at 3 months
structure (smiles),measurement,setting,value
"COc1ccc(C[C@@H](C)[C@@H](C)Cc2ccc(OC)c(OC)c2)cc1OC [Formulation M4N, meso-1,4-bis(3,4-dimethoxyphenyl)-2,3-dimethylbutane]","cell death, share of the cell population",80 μM or […] M4N in CPE formulation,about 20%
same,"cell death, share of the cell population",80 μM or […] M4N in DMSO formulation,about 40%
same,M4N sufficient to cause about a 50% inhibition in cell proliferation,"CPE formulation, 72 hr",~7.2 µg/mL
same,effectiveness of the drug of different lots,"CPE formulation, lots EM1001 and EM1002",remains the same
same,% Dead Cells,[1],9.4%
same,% Viability,[1],90.7%
same,Proliferation Rate,[1],0.34
same,% Dead Cells,[2],11.9%
same,% Viability,[2],88.1%
same,Proliferation Rate,[2],0.39
same,% Dead Cells,[3],10.9%
same,% Viability,[3],89.2%
same,Proliferation Rate,[3],0.43
same,% Dead Cells,[4],9.0%
same,% Viability,[4],91.0%
same,Proliferation Rate,[4],0.39
same,% Dead Cells,[5],31.3%
same,% Viability,[5],68.7%
same,Proliferation Rate,[5],0.24
same,% Dead Cells,[6],3.3%
same,% Viability,[6],96.8%
same,Proliferation Rate,[6],0.74
same,% Dead Cells,[7],6.6%
same,% Viability,[7],93.5%
same,Proliferation Rate,[7],0.33
same,% Dead Cells,[8],4.4%
same,% Viability,[8],95.6%
same,Proliferation Rate,[8],0.52
same,% Dead Cells,[9],11.9%
same,% Viability,[9],88.1%
same,Proliferation Rate,[9],0.35
same,% Dead Cells,[10],10.7%
same,% Viability,[10],89.3%
same,Proliferation Rate,[10],0.19
same,% Dead Cells,[11],12.6%
same,% Viability,[11],87.4%
same,Proliferation Rate,[11],0.23
same,% Dead Cells,[12],9.9%
same,% Viability,[12],90.1%
same,Proliferation Rate,[12],0.25
same,% Dead Cells,[13],11.0%
same,% Viability,[13],89.1%
same,Proliferation Rate,[13],0.31
same,% Dead Cells,[14],13.4%
same,% Viability,[14],86.6%
same,Proliferation Rate,[14],0.32
same,% Dead Cells,[15],13.6%
same,% Viability,[15],86.4%
same,Proliferation Rate,[15],0.19
same,% Dead Cells,[16],16.5%
same,% Viability,[16],83.5%
same,Proliferation Rate,[16],0.09
same,% Dead Cells,[17],27.2%
same,% Viability,[17],72.8%
same,Proliferation Rate,[17],0.10
same,% Dead Cells,[18],5.0%
same,% Viability,[18],95.0%
same,Proliferation Rate,[18],0.21
same,% Dead Cells,[19],23.4%
same,% Viability,[19],76.7%
same,Proliferation Rate,[19],0.08
same,% Dead Cells,[20],9.4%
same,% Viability,[20],90.6%
same,Proliferation Rate,[20],0.28
same,% Dead Cells,[21],25.9%
same,% Viability,[21],74.2%
same,Proliferation Rate,[21],0.14
same,% Dead Cells,[22],8.8%
same,% Viability,[22],91.2%
same,Proliferation Rate,[22],0.14
same,% Dead Cells,[23],13.7%
same,% Viability,[23],86.4%
same,Proliferation Rate,[23],0.04
same,% Dead Cells,[24],13.2%
same,% Viability,[24],86.8%
same,Proliferation Rate,[24],0.25
same,% Dead Cells,[25],22.8%
same,% Viability,[25],77.3%
same,Proliferation Rate,[25],0.12
same,% Dead Cells,[26],23.1%
same,% Viability,[26],76.9%
same,Proliferation Rate,[26],0.11
same,% Dead Cells,[27],29.3%
same,% Viability,[27],70.7%
same,Proliferation Rate,[27],0.10
same,% Dead Cells,[28],43.1%
same,% Viability,[28],56.9%
